Several values for one entry are separate records, joined by “and”; a condition that tells them apart may be missing. Identical values can stand only once. Marks after values point to notes of the source that are not given here.
Columns and labels:
[1] = system: hyperthermia induced by intramuscular injection of pyrogenal; assay: Preventive antipyretic activity, pyrogenal hyperthermia; format: in vivo, Wistar rats
Procedure: Experiments were conducted on 48 Wistar rats with body mass 165-182 g by intramuscular injection of pyrogenal (Gamalei State Research Institution, Moscow, Russia) in 100 μg dose (Shwarz G Y, Syubaev R D, Vedomosti NCEG lekarstvennyh sredstv MZ RF 2000; 1:44-50 (Rus). Test substances were given p.o. one hour before the pyrogenal injection. Rectal temperature was measured by electric thermometer TERMO before injection of pyrogenal (baseline) and for 3 hours after injection. The antipyretic activity was evaluated by the reduction of hyperthermic reaction 2 hours after injection of pyrogenal that correlated well with the published data (10) about the peak of reaction (Table 6). Ambient temperature was kept at 20-21° C.

[2] = system: serum lipid levels (C, HDL, LDL, TG); assay: Acute hyperlipidemia model (Triton WR1339); format: in vivo, Wistar rats; conditions: serum 24 h
Procedure: Male Wistar rats with body mass of 250-270 g were used. Animals were held in groups of 6-8 in climatized rooms at 22±1° C., relative humidity 60±5%, and 12/12-hour light/dark cycle with free access to water and feed. […] The solution of test substances or water was introduced to control and TR group animals p.o. one hour before and 20 hours after the introduction of TR as described below.
Blood for biochemical analysis was collected on the next day (24 hours after the injection of TR) by heart punction under ether narcosis. Serum was separated by centrifugation and analyzed for total cholesterol, HDL, LDL and TG levels by commercial kits.

[3] = system: FeCl3 induced carotid artery thrombosis; assay: FeCl3 induced carotid artery thrombosis, time till occlusion; format: in vivo, Wistar rats; conditions: for Time till occlusion, %: control = 100
From the text: We chose an experimental thrombosis model based on rat arterial thrombosis induced by FeCl3 (Kurz K et al, Thromb Res 1990, 60:269-280. Wang X, Xu L, Thromb Res 2005,115:95-100). Tissue damage initiated by iron-mediated chemical oxidation predisposes the injured area to platelet adherence and aggregation followed by coagulation activation and fibrin deposition. Male Wistar rats with mass 350-420 g were used in experiments. Animals were kept in groups of 7-8 in adequate cages in climatized room at 22±1° C., relative humidity 60±5% and 12/12-hour light/darkness cycle with free access to feed and water. All experiments were carried out in accordance with the European Community Council's Directive of 24 Nov. 1986 (86/609/EEC) relative to experimental animal care. All efforts were made to minimize animal suffering and to reduce the number of animals used. Rats were randomly divided into various experimental groups, each consisting of not less than seven animals. The vehicle or test compound MD (25 mg/kg), NA (25 mg/kg), MASA (10 mg/kg), ASA (5 mg/kg) and combination MD+NA (25+25 mg/kg), MASA+NA (10+25 mg/kg) and ASA+NA (5+25 mg/kg) was administered by oral route 2 h before the initiation of thrombosis. Parallel experiments were conducted to compare the effects of a single dose of test substance (given 2 h before the initiation of thrombosis) and repeated doses (once daily for 3 days). […] Rats were anaesthetized with pentobarbital sodium (50 mg/kg, i.p. and 10 mg/kg/h) and were placed on a heat controlled operating table throughout the experiment to maintain a body temperature of 37° C. One of the carotid arteries was exposed by cervical incision, separated from the adherent tissue, vagus nerve, and a flow probe (electromagnetic blood flow meter MFV 1200, Nicon Kohden, Japan) was placed on the exposed segment of common carotid artery to record the blood flow. After a stabilization period of 15 min, thrombosis was induced by topically applying (in contact with the adventitial surface of vessel) two pieces (2×1 mm) of Whatman filter paper, soaked in 15% solution of FeCl3. Thrombosis time of carotid artery was recorded as time taken for the complete cessation of the blood flow and has been reported as time till occlusion (TTO).

platelet aggregation = assay: Platelet aggregation ex vivo after 3 days treatment; format: in vivo, rats
Procedure: Platelet aggregation was studied using whole blood impedance aggregometry on Multiplate (Multiple Platelet Function Analyzer, Dynabyte Medical, Germany) (Toth O et al, Thromb Haemost 2006; 96:781-788. […] Blood samples for in vitro experiment were collected from healthy donor B. […] In the ex vivo experiment blood was collected into plastic tubes covered with hirudin (Dynabyte Medical, Germany) from narcotized rats that were treated for 3 previous days with test substances p.o. The measurements were performed according to modified Dynabyte Medical protocol. […] After 5 min incubation and stirring at 37° C., measurements were initiated by adding of the appropriate agonist solution (sourced from Dynabyte Medical, Germany): After the thrombosis experiment the narcotized animals who received test substances for 3 days were used for platelet aggregation test ex vivo. […] Blood samples were used for measurement between 30 min and 4 h after collection. The measurements were performed according to modified Dynabyte Medical protocol (see above under Platelet aggregation).

[4] = system: serum lipid levels (C, HDL, LDL, TG); assay: Chronic hyperlipidemia model (Triton WR1339, 3 weeks); format: in vivo, Wistar rats; conditions: MASA 150 mg/kg/d p.o.; TR 250 mg/kg 3x/week
Procedure: Male Wistar rats were used. Animals were held in climatized rooms 22±1° C. with relative humidity 60±5%, and 12/12-hour light/dark cycle with free access to water and feed. Initial weight of animals was 220-240 g. Experimental chronical (subchronical) hyperlipidemia/hypercholesterolemia was induced by TR using the method described by Levine and Saltzman (Levine S, Saltzman A, J Pharmacol Toxicol Meth 2007; 55:224-226). Animals received 250 mg/kg of TR solution via tail vein three times a week for 3 weeks. Solutions of test substances or water for Control and TR group was introduced p.o. once a day one hour before injection of TR solution or taking a blood sample according to the following scheme:
Blood for biochemical analyses was obtained after 1, 2 and 3 weeks (on the next day after the TR injection) by cardiac punction under ether narcosis. Serum was separated by centrifugation and analyzed for total C, HDL, LDL and TG levels by commercial kits. Statistics.

[5] = 5 mg/kg/d p.o., repeated, 3 days
[6] = AA induced, 5 mg/kg/d p.o. 3 days
[7] = ADP induced, 5 mg/kg/d p.o. 3 days
[8] = PGE1 + ADP induced, 5 mg/kg/d p.o. 3 days
[9] = 10 mg/kg/d p.o., repeated, 3 days
[10] = AA induced, 10 mg/kg/d p.o. 3 days
[11] = ADP induced, 10 mg/kg/d p.o. 3 days
[12] = PGE1 + ADP induced, 10 mg/kg/d p.o. 3 days

CC(=O)Oc1ccccc1C(=O)O [ASA, acetylsalicylic acid]
Rectal temperature 120 minutes after injection ([1]; 50 mg/kg p.o. 1 h before pyrogenal): 35.6 ± 0.19***^$ ° C.
C ([2]; 45 mg/kg p.o. 1 h before and 20 h after TR 250 mg/kg): 381.0 ± 30.3 mg/dL
HDL ([2]; 45 mg/kg p.o., TR 250 mg/kg): 62.8 ± 10.9 mg/dL
LDL ([2]; 45 mg/kg p.o., TR 250 mg/kg): 307.4 ± 37.8 mg/dL
TG ([2]; 45 mg/kg p.o., TR 250 mg/kg): 973 ± 82.7 mg/dL
C ([2]; 90 mg/kg p.o., TR 250 mg/kg): 288.1 ± 23.5 mg/dL
HDL ([2]; 90 mg/kg p.o., TR 250 mg/kg): 60.0 ± 7.4 mg/dL
LDL ([2]; 90 mg/kg p.o., TR 250 mg/kg): 219.1 ± 23.9 mg/dL
TG ([2]; 90 mg/kg p.o., TR 250 mg/kg): 791 ± 73.9 mg/dL
Time till occlusion ([3]; 5 mg/kg p.o., single dose 2 h before): 35.2 ± 3.02^1 min
Time till occlusion, % ([3]; 5 mg/kg p.o., single dose): 144%
Time till occlusion [3, 5]: 40.9 ± 3.25^1 min
Time till occlusion, % [3, 5]: 162%
AUC (platelet aggregation; [6]): 550 ± 31.3^2 AU*min
Amax (platelet aggregation; [6]): 86.1 ± 6.8^2 AU
AUC (platelet aggregation; [7]): 768 ± 53.2 AU*min
Amax (platelet aggregation; [7]): 150.3 ± 13.5 AU
AUC (platelet aggregation; [8]): 794 ± 48.6 AU*min
Amax (platelet aggregation; [8]): 147.2 ± 11.8 AU

CC(=O)Oc1ccccc1C(=O)[O-].C[N+](C)(C)NCCC(=O)O [MASA, 3-(trimethylammonioamino)propanoate Acetylsalicylic Acid Addition Salt]
HDL after 1 week (HDL1) [4]: 100.1 ± 9.4 mg/dL
HDL after 2 weeks (HDL2) [4]: 113.8 ± 13.1 mg/dL
HDL after 3 weeks (HDL3) [4]: 128.3 ± 18.5 mg/dL
LDL after 1 week (LDL1) [4]: 263.3 ± 19.4 mg/dL
LDL after 2 weeks (LDL2) [4]: 287.6 ± 18.5 mg/dL
LDL after 3 weeks (LDL3) [4]: 261.9 ± 12.6 mg/dL
TG after 1 week (TG1) [4]: 964 ± 94.9 mg/dL
TG after 2 weeks (TG2) [4]: 1079 ± 84 mg/dL
TG after 3 weeks (TG3) [4]: 982 ± 72.7 mg/dL
Total C after 1 week (C1) [4]: 375.9 ± 25.8 mg/dL
Total C after 2 weeks (C2) [4]: 406.7 ± 19.8 mg/dL
Total C after 3 weeks (C3) [4]: 409 ± 39.4 mg/dL
Rectal temperature 120 minutes after injection ([1]; 75 mg/kg p.o. 1 h before pyrogenal): 36.3 ± 0.20 °C
Rectal temperature 120 minutes after injection ([1]; 150 mg/kg p.o. 1 h before pyrogenal): 36 ± 0.21 °C
Rectal temperature 120 minutes after injection ([1]; 300 mg/kg p.o. 1 h before pyrogenal): 35.8 ± 0.16***^$ ° C.
C ([2]; 75 mg/kg p.o., TR 250 mg/kg): 341.9 ± 16.3 mg/dL
HDL ([2]; 75 mg/kg p.o., TR 250 mg/kg): 68.1 ± 8.7 mg/dL
LDL ([2]; 75 mg/kg p.o., TR 250 mg/kg): 270.1 ± 12.8 mg/dL
TG ([2]; 75 mg/kg p.o., TR 250 mg/kg): 861 ± 105.7 mg/dL
C ([2]; 150 mg/kg p.o., TR 250 mg/kg): 249.6 ± 22.2**^$& mg/dl and 249.6 ± 22.2**^$ mg/dl and 249.6 ± 22.2**^& mg/dl
HDL ([2]; 150 mg/kg p.o., TR 250 mg/kg): 58.2 ± 8.1 mg/dL
LDL ([2]; 150 mg/kg p.o., TR 250 mg/kg): 182.4 ± 19.6**^$& mg/dl and 182.4 ± 19.6**^$ mg/dl and 182.4 ± 19.6**^& mg/dl
TG ([2]; 150 mg/kg p.o., TR 250 mg/kg): 668 ± 104.4**^$& mg/dl and 668 ± 70.9**^$ mg/dl and 668 ± 70.9**^& mg/dl
C ([2]; 300 mg/kg p.o., TR 250 mg/kg): 219.0 ± 16.7**^$#& mg/dl
HDL ([2]; 300 mg/kg p.o., TR 250 mg/kg): 56.3 ± 8.6 mg/dL
LDL ([2]; 300 mg/kg p.o., TR 250 mg/kg): 158.6 ± 19.4**^$#& mg/dl
TG ([2]; 300 mg/kg p.o., TR 250 mg/kg): 548 ± 73.2***^&$# mg/dl
Time till occlusion ([3]; 10 mg/kg p.o., single dose 2 h before): 41.7 ± 3.95^2 min and 41.7 ± 3.95^2b min
Time till occlusion, % ([3]; 10 mg/kg p.o., single dose): 171%
Time till occlusion [3, 9]: 48.4 ± 4.35^2 min
Time till occlusion, % [3, 9]: 191%
AUC (platelet aggregation; [10]): 232 ± 44.1^2&a AU*min
Amax (platelet aggregation; [10]): 48.2 ± 9.7^3&a AU
AUC (platelet aggregation; [11]): 528 ± 46.5^1 AU*min
Amax (platelet aggregation; [11]): 75.5 ± 12.8^2 AU
AUC (platelet aggregation; [12]): 195 ± 35.3^3 AU*min
Amax (platelet aggregation; [12]): 41.4 ± 14.8^2 AU
